One data set addresses T1, PDE4B1 (Homo sapiens, UniProt Q07343).
T1 construct: purchased BPS 60041
Description: Effect of compounds on PDE4B1 activity (IMAP fluorescence polarization kit). The data set is classed as biochemical. As to conditions: class symbols. As to the method: The IMAP Reaction Buffer containing 0.1% BSA (5×) in the kit was diluted into a 1-fold reaction buffer containing 1 mM DTT. 0.12 nM PDE4B1 (BPS, Cat #60041) was added to the 1-fold reaction buffer to form a 2-fold enzyme solution. 10 μL of the 2-fold enzyme solution was added to wells of a 384-well reaction plate. For the negative control well, 10 μL of the 1-fold reaction buffer was used instead of the enzyme solution. Centrifugation at 1000 rpm for 1 minute and incubation at room temperature for 15 minutes were carried out. 0.2 uM FAM-labeled cAMP (FAM-cAMP, Molecular Device, Cat #R7506) was added to the 1-fold reaction buffer to form a 2-fold substrate solution. 10 μL of the 2-fold substrate solution was added to each well of the 384-well reaction plate. Centrifugation at 1000 rpm for 1 minute was carried out. A reaction was carried out at room temperature for 20 minutes. IMAP Progressive Binding Buffer A (5×), IMAP Progressive Binding Buffer B (5×), and IMAP Progressive Binding Reagent (provided by IMAP FP IPP Explorer Kit) were prepared into a reaction stop solution according to the instructions for use. 60 μL of an […] reaction stop solution was added to each well of the 384-well reaction plate to stop the reaction, and the reaction product was centrifuged at 1000 rpm for 1 minute. Incubation at room temperature in the dark for 60 minutes was carried out. The mP values (Ex480/Em535 (s), Em535 (p)) were read by a microplate reader (Envision).
FP was usually represented by mP value. mP value for FP measurement=1000*(S−G*P)/(S+G*P) • S: fluorescence intensity in parallel direction • P: fluorescence intensity in perpendicular direction • G: G factor=1
(§1) [formula] • mP(sample): mP of the test compound in a reaction well • mP(negative control): mP in the negative control well • mP(positive control): mP in the positive control well
According to the calculated inhibition rate at each concentration, the IC50 value of each compound was calculated by XLFit excel add-in version 5.4.0.8 software.
Y=Bottom+(Top−Bottom)/(1+(IC50/X)^HillSlope) Fitting formula: […]
On the technique in general: Fluorescence polarisation rises when a labelled molecule tumbles more slowly, as on binding a larger partner.

The next data set concerns the target T2, PDE4D2 (Homo sapiens, UniProt Q08499).
T2 construct: purchased BPS Bioscience 60345
Description: Effect of compounds on PDE4D2 activity (fluorescence polarization kit). It is filed as biochemical. The settings on record: class symbols. The method, then: The effect of compounds on PDE4D2 activity was detected by a fluorescence polarization kit (BPS Bioscience, Catalog #60345). During the reaction, 12.5 μL of 0.272 ng/well of an enzyme (final concentration: 0.068 ng/well) and 12.5 μL of the compound diluted in a gradient manner (DMSO concentration: 4%) were first pre-incubated at room temperature for 15 minutes, the same volume of the enzyme at the same concentration and 12.5 μL of PDE buffer containing 4% DMSO were added to the positive control well, and 25 μL of PDE buffer containing 2% DMSO was added to the negative control well. After completion, 25 μL of […] FAM-Cyclic-3′,5′-AMP (final concentration: […]) was added to each well, fully mixed, and then incubated at room temperature with slow shaking for 30 minutes. The Binding Agent was diluted with the Binding Agent Diluent (cAMP) at a ratio of 1:100 for later use, 100 μl/well of the Binding Agent dilution was taken and added to all wells of the test plate and incubated at room temperature with slow shaking for 1 hour.
After the incubation was complete, BMG LRBTECH microplate reader was used for FP detection, with Excitation at 485 nm and Emission at 520 nm. FP was usually represented by mP value.
[formula] • I∥ (S520): fluorescence intensity in parallel direction • I⊥ (P520): fluorescence intensity in perpendicular direction • G: G factor=1
as §1
According to the calculated inhibition rate at each concentration, the IC50 value of each compound was calculated by GraphPad Prism 8 software.

Data set [1] can be described thus: Pharmacokinetic test in mice. It is filed as in vivo, ICR mice. The method, then: 5.1 Experimental animals: Male ICR mice, 20-25 g, 6 mice/compound. Purchased from Chengdu Ddossy Experimental Animals Co., Ltd.
5.2 Experimental design: On the day of the experiment, 42 ICR mice were randomly grouped according to their body weights. The animals were fasted with water available for 12-14 h one day before administration and fed 4 h after administration.
Before and after administration, 0.06 mL of blood was taken from the orbit under isoflurane anesthesia and placed in an EDTAK2 centrifuge tube for centrifugation at 5000 rpm at 4-C for 10 min, followed by plasma collection. The blood collection time points for the intravenous group and intragastric group were both 0 m, 5 mi, 15 mi, 30 mi, 1 h, 2 h, 4 h, 6 h, 8 h, and 24 h. Before analysis and detection, all the samples were stored at −80° C., and the samples were subjected to quantitative analysis using LC-MS/MS.

Data set [2] concerns the target T3, hERG potassium ion channel (Homo sapiens, UniProt Q12809).
T3 construct: expressed in transfected cells
Nature of the data set: Test for hERG potassium ion channel (manual patch-clamp, CHO cells). The data set is classed as cell-based. The settings on record: CHO cells stably expressing hERG, whole cell patch-clamp; read-out: IC50, inhibition of hERG potassium channel current. An excerpt: Experimental Platform: Electrophysiological Manual Patch-Clamp System
Cell line: Chinese hamster ovary (CHO) cell line stably expressing hERG potassium ion channel
Experimental method: CHO (Chinese Hamster Ovary) cells stably expressing hERG potassium channel were subjected to a whole cell patch-clamp technique to record the hERG potassium channel current at room temperature. The glass microelectrode was made of a glass electrode blank (BF150-86-10, Sutter) by a puller. The tip resistance after filling the liquid in the electrode was about 2-5 MQ. The glass microelectrode can be connected to the patch-clamp amplifier by inserting the glass microelectrode into an amplifier probe. The clamping voltage and data recording were controlled and recorded by the pClamp 10 software through a computer. The sampling frequency was 10 kHz, and the filtering frequency was 2 kHz. After the whole cell records were obtained, the cells were clamped at −80 mV, and the step voltage that induced the hERG potassium current (IhERG) was depolarized from −80 mV to +20 mV for 2 s, then repolarized to −50 mV, and returned to −80 mV after 1 s. This voltage stimulation was given every 10 s, and the administration process was started after the hERG potassium current was confirmed to be stable (at least 1 minute). The compound was administered for at least 1 minute at each test concentration, and at least 2 cells (n: 2) were tested at each concentration.
Data processing: Data analysis processing was carried out by using pClamp 10, GraphPad Prism 5, and Excel software. The degree of inhibition on the hERG potassium current (peak value of hERG tail current induced at −50 mV) at different compound concentrations was calculated by the following formula:
[formula] • where Inhibition % represents the percentage inhibition of the compound on the hERG potassium current, and I and Io represent the amplitude of the hERG potassium current after and before administration, respectively.
Compound IC50 was calculated using GraphPad Prism 5 software by fitting according to the following equation: […]
Background: The hERG channel carries a current that helps repolarise heart muscle cells.

The mark [3] stands for this setting: male, ICR, mouse, iv, plasma, i.v. (5 mg/kg).
[4] abbreviates: male, ICR, mouse, po, plasma, i.g. (10 mg/kg).

For orientation: IC50 means the midpoint of a concentration-inhibition curve. As a reminder, the AUC(0-t) is exposure summed from dosing to a finite time, without extrapolation to infinity. Low readings indicate low exposure, high ones high exposure. Usually clearance stands for a measure of how efficiently the substance is removed, as volume per time. A high value points to efficient removal. Usually half-life stands for the time in which the quantity being followed falls by half. Read a high half-life as slow decline.

Where only a bound is given, the exact number is not on record here.

T2 sequence (Q08499 303-809): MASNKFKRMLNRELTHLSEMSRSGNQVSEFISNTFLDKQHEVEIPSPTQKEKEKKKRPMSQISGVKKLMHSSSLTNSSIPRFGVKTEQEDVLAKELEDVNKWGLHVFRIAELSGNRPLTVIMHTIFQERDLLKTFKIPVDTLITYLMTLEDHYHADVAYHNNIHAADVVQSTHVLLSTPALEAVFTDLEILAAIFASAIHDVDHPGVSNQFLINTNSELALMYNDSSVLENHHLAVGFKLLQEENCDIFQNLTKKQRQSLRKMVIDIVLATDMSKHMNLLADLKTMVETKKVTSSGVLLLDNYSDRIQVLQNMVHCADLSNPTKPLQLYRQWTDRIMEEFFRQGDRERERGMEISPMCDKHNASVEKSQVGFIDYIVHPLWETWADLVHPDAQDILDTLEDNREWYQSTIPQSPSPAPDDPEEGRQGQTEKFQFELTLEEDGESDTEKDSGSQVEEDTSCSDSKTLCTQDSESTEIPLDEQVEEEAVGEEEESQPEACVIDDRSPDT
T1 sequence (Q07343 whole entry): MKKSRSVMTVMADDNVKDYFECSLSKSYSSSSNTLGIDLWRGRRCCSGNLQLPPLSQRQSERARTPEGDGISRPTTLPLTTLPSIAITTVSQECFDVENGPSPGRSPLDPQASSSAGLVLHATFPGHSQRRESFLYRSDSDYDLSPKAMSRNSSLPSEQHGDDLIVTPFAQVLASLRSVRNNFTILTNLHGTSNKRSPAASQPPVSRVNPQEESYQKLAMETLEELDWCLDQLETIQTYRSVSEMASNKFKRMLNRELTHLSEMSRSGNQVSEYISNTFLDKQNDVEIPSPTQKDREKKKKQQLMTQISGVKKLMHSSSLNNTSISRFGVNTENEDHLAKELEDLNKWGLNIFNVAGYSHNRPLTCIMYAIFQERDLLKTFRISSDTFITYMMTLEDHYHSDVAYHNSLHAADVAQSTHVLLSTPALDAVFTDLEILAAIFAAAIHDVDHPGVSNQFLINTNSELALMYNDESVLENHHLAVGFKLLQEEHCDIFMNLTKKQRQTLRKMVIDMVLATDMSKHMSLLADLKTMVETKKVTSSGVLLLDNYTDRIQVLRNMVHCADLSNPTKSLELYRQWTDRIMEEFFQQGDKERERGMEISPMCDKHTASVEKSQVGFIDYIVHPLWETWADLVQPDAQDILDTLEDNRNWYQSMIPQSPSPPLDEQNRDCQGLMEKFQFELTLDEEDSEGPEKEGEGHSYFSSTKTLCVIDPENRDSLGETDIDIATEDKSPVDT
T3 sequence (Q12809 whole entry): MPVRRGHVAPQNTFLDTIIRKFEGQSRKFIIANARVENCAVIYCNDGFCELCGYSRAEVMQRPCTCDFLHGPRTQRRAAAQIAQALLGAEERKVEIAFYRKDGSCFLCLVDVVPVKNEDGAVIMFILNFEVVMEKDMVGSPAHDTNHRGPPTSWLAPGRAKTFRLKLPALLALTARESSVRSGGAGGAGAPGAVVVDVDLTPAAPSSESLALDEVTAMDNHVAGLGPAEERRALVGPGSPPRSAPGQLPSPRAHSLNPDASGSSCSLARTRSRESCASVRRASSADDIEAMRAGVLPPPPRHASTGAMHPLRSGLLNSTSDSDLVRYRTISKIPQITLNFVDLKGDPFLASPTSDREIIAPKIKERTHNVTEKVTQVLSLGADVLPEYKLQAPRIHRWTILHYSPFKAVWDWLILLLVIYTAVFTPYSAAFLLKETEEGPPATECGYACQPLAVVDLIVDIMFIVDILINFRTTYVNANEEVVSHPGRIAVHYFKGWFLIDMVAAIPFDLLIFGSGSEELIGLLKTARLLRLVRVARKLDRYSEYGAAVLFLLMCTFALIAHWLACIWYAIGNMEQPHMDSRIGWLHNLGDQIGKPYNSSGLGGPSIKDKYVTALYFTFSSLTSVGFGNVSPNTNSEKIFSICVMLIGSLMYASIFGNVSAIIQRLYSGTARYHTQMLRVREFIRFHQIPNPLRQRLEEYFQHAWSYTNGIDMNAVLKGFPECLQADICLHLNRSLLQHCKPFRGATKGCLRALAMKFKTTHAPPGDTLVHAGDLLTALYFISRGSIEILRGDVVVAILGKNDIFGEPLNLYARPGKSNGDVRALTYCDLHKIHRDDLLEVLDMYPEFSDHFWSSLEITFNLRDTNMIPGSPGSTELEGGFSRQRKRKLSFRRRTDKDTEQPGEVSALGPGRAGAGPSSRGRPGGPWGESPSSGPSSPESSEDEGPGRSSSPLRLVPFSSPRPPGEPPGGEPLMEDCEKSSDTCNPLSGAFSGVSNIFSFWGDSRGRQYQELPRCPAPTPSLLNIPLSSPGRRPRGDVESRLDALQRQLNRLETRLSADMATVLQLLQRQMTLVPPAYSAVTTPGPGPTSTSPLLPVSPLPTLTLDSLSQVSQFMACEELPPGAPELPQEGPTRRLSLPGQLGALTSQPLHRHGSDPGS

Take `[O-][S@+]1CCc2nc(N3CC=C(c4ncc(Cl)cn4)CC3)nc(NC3(CO)CCC3)c21` [Compound 28]: the IC50 against PDE4B1 and on PDE4D2 was below 10 nM in each case. Moreover, in data set [1] (i.g. (10 mg/kg)), the F is given as 71.4 ± 11%. Also, the AUC(0-t) amounted to 9210 ± 2070 ng·h/mL in data set [1] (setting [3]) and 26300 ± 4150 ng·h/mL in data set [1] (setting [4]). In data set [1] (setting [3]), the clearance came to 4.67 ± 1.2 mL/min/kg. In addition, the half-life is 3.59 ± 0.19 h in data set [1] (setting [3]) and 7.04 ± 1.8 h in data set [1] (setting [4]). The Vd in data set [1] (male, ICR, mouse, iv, plasma, i.v. (5 mg/kg), read-out: Vdss) worked out at 1.31 ± 0.28 L/kg.

With `[O-][S@+]1CCc2nc(N3CCC=C(c4ncc(Cl)cn4)CC3)nc(NC3(CO)CCC3)c21` [Compound 34], the IC50 at PDE4B1 is below 10 nM; on PDE4D2, below 10 nM; in data set [2] it was 13600 nM.

Source of the values: patent US20250326765A1, “PDE4B INHIBITOR AND USE THEREOF” (XIZANG HAISCO PHARMACEUTICAL CO., LTD., priority 2022, published 2025).
